The results in this text go back to patent US20160297763A1, “Heteroaryl hydroxamic acid derivatives and their use in the treatment, amelioration or prevention of a viral disease” (priority 2011, published 2016).

By IC50 is commonly meant the concentration that inhibits the measured activity by half.

In the first data set the test system is influenza A virus A/Aichi/2/68 (H3N2). Put plainly: Cytopathic effect (CPE) assay H3N2. Format: cell-based, influenza A virus (H3N2) on MDCK cells.
Conditions: not given
As to the method: A possible measure of the […] antiviral activity of the compounds having the formula I or II is the CPE assay disclosed herein. […] In this connection, the reduction in the virus-mediated cytopathic effect (CPE) upon treatment with the compounds was calculated as follows: The cell viability of infected-treated and uninfected-treated cells was determined using an ATP-based cell viability assay (Promega). The response in relative luminescent units (RLU) of infected-untreated samples was subtracted from the response (RLU) of the infected-treated samples and then normalized to the viability of the corresponding uninfected sample resulting in % CPE reduction.
The influenza A virus (IAV) was obtained from American Tissue Culture Collection (A/Aichi/2/68 (H3N2); VR-547). Virus stocks were prepared by propagation of virus on Mardin-Darby canine kidney (MDCK; ATCC CCL-34) cells and infectious titres of virus stocks were determined by the 50% tissue culture infective dose (TCID50) analysis as described in Reed, L. J., and H. Muench. 1938, Am. J. Hyg. 27:493-497.
MDCK cells were seeded in 96-well plates at 2×10^4 cells/well using DMEM/Ham's F-12 (1:1) medium containing 10% foetal bovine serum (FBS), 2 mM L-glutamine and 1 antibiotics (all from PAA). Until infection the cells were incubated for 5 hrs at 37° C., 5.0 CO2 to form a ˜80% confluent monolayer on the bottom of the well. Each test compound was dissolved in DMSO and generally tested at 25 μM and 250 μM. In those cases where the compounds were not soluble at that concentration they were tested at the highest soluble concentration. The compounds were diluted in infection medium (DMEM/Ham's F-12 (1:1) containing 5 μg/ml trypsin, and 1% antibiotics) for a final plate well DMSO concentration of 1%. The virus stock was diluted in infection medium (DMEM/Ham's F-12 (1:1) containing 5 μg/ml Trypsin, 1% DMSO, and 1% antibiotics) to a theoretical multiplicity of infection (MOI) of 0.05.
After removal of the culture medium and one washing step with PBS, virus and compound were added together to the cells. In the wells used for cytotoxicity determination (i.e. in the absence of viral infection), no virus suspension was added. Instead, infection medium was added. Each treatment was conducted in two replicates. After incubation at 37° C., 5% CO2 for 48 hrs, each well was observed microscopically for apparent cytotoxicity, precipitate formation, or other notable abnormalities. Then, cell viability was determined using CellTiter-Glo luminescent cell viability assay (Promega). The supernatant was removed carefully and 65 μl of the reconstituted reagent were added to each well and incubated with gentle shaking for 15 min at room temperature. Then, 60 μl of the solution was transferred to an opaque plate and luminescence (RLU) was measured using Synergy HT plate reader (Biotek).
Relative cell viability values of uninfected-treated versus uninfected-untreated cells were used to evaluate cytotoxicity of the compounds. Substances with a relative viability below 80% at the tested concentration were regarded as cytotoxic and retested at lower concentrations.
Reduction in the virus-mediated cytopathic effect (CPE) upon treatment with the compounds was calculated as follows: The response (RLU) of infected-untreated samples was subtracted from the response (RLU) of the infected-treated samples and then normalized to the viability of the corresponding uninfected sample resulting in % CPE reduction.
Background: Damage to the host cells serves as the signal in cytopathic effect assays.
Regarding `Cc1c(Cc2ccc(Cl)cc2)sc2nc(N)[nH]c(=O)c12` [SAV-7609], the “CPE H3N2 (insoluble): solubility in the assay” value is recorded as “reduction (%) insoluble”.

The same data set, now with this note: Influenza A virus, H3N2, activity conc 1 (μM per method); read-out: CPE H3N2 reduction (%).
Take `CCONC(=O)c1cc(NCCCc2cccc(Cl)c2)ccn1` [drawing 168]: the inhibition at 1 µM is -0.3%.

Staying with this data set, now noted: Influenza A virus, H3N2, activity conc 2 (μM per method); read-out: CPE H3N2 reduction (%).
As to `O=C(NOCc1ccccc1)c1ccc(-c2ccccc2)cn1` [drawing 172], the inhibition at 2 µM is -4%.
Regarding `O=C(c1cc(N2CCCCC2)ccn1)N(O)CCCc1ccccc1` [drawing 203], the inhibition at 2 µM was found to be 7.7%.
Same read-out and setting: the value for `CC(C)c1cccc(-c2ccc(C(=O)NO)nc2)c1` [drawing 205] was -2.1%; that for `CC(C)c1cccc(-c2ccc(C(=O)N(O)CCc3ccccc3)nc2)c1` [drawing 207] was 2.1%; that for `O=C(c1cc(-c2ccc(Cl)cc2)ccn1)N(O)Cc1ccccc1` [drawing 219] was -6.7%.

Still in this data set, the particulars now being: Influenza A virus, H3N2, activity conc 5 (μM per method); read-out: CPE H3N2 reduction (%).
Turning to `Cc1c(-c2ccccc2)sc2nc(NCCN)[nH]c(=O)c12` [SAV-7588], the inhibition at 5 µM stood at 2.2%.
Still for that read-out and setting: the value for `Cc1c(-c2ccccc2)sc2nc(NC3CCCCC3)[nH]c(=O)c12` [SAV-7640] was -3.2%; that for `CCONC(=O)c1ccc(-c2ccccc2)cn1` [drawing 173] was -3%.
For `O=C(c1ccc(N2CCCC2)cn1)N(Cc1ccccc1)OCc1ccccc1` [drawing 178], the inhibition at 5 µM is -2.7%.
Regarding `O=C(c1cc2ccccc2cn1)N(Cc1ccccc1)OCc1ccccc1` [drawing 179], the inhibition at 5 µM was 1.3%.
With `O=C(NOCc1ccccc1)c1cc2ccccc2cn1` [drawing 182], the inhibition at 5 µM was -1.5%.
As for `O=C(c1cc(N2CCCCC2)ccn1)N(O)Cc1ccccc1` [drawing 183], the inhibition at 5 µM is 1.1%.
The same measure, in the same setting: the value for `O=C(NOCc1ccccc1)c1cc(N2CCCCC2)ccn1` [drawing 187] was 1%; that for `O=C(c1ccc(N2CCCCC2)cn1)N(O)Cc1ccccc1` [drawing 208] was -3.4%.
In the case of `O=C(c1cc(-c2ccc(Cl)c(Cl)c2)ccn1)N(O)Cc1ccccc1` [drawing 220], the inhibition at 5 µM was determined as 8.1%.

The data set is the same for the next values; noted with them: Influenza A virus, H3N2, activity conc 10 (μM per method); read-out: CPE H3N2 reduction (%).
As for `Cc1cccc(-c2ccc(C(=O)N(O)Cc3ccccc3)nc2)c1` [drawing 181], the inhibition at 10 µM came out at 15.5%.
Still for that read-out and setting: under `O=C(c1cc(-c2ccccc2)ccn1)N(O)Cc1ccccc1` [drawing 211] stands -9.3%.

The same data set, now with this note: Influenza A virus, H3N2, activity conc 12 (μM per method); read-out: CPE H3N2 reduction (%).
As to `O=C(c1ccc(-c2ccccc2)cn1)N(O)Cc1ccccc1` [drawing 215], the inhibition at 12 µM is 13.4%.
Still for that read-out and setting: the value for `O=C(NO)c1ccc(-c2ccccc2)cn1` [drawing 216] was 21.7%.

The data set is the same for the next values; noted with them: Influenza A virus, H3N2, activity conc 20 (μM per method); read-out: CPE H3N2 reduction (%).
`O=C(NOCc1ccccc1)c1ccc(N2CCCC2)cn1` [drawing 177]: the inhibition at 20 µM was -8.7%.
Still for that read-out and setting: under `O=C(c1cc2ccccc2cn1)N(O)CCc1ccccc1` [drawing 202] stands -1.8%.

The same data set, now with this note: Influenza A virus, H3N2, activity conc 25 (μM per method); read-out: CPE H3N2 reduction (%).
On to `O=C(c1ccc(N2CCCC2)cn1)N(O)Cc1ccccc1` [drawing 180], for which the inhibition at 25 µM is 1%.

The same data set, now with this note: Influenza A virus, H3N2, activity conc 50 (μM per method); read-out: CPE H3N2 reduction (%).
`N/C(=N\O)c1ccc(C(=O)NO)nc1`: the inhibition at 50 µM is -4.8%.
On the same count and under the same terms, the value for `CON(C)C(=O)c1ccc2ccccc2n1` was -1.2%.
Take `CON(C)C(=O)c1cccc(C)n1`: the inhibition at 50 µM is -0.9%.
Take `CCONC(=O)c1cc(NCC2CCN(Cc3ccccc3)CC2)ccn1`: the inhibition at 50 µM is 14.8%.
`CCONC(=O)c1cccc(C)n1`: the inhibition at 50 µM was -2.1%.
Same read-out and setting: under `CCONC(=O)c1ccc2c(=O)n(C)c(=O)n(C)c2n1` stands -0.4%; under `COc1ccc2nc(C(=O)NOCc3ccccc3)ccc2c1`, -1.9%.
On to `Cc1cccc(C(=O)N(C)OCc2ccccc2)n1`, for which the inhibition at 50 µM is -2.3%.
As for `CCON(C)C(=O)c1cccc(C)n1`, the inhibition at 50 µM is -1.9%.
As for `CN(OCc1ccccc1)C(=O)c1ccc(-c2ccccc2)cn1`, the inhibition at 50 µM is -2.6%.
In the case of `O=C(c1cc(NS(=O)(=O)Cc2cccc(F)c2)ccn1)N(O)Cc1ccccc1`, the inhibition at 50 µM is 9.6%.
Still for that read-out and setting: the value for `O=C(NO)c1cc(NS(=O)(=O)Cc2ccccc2F)ccn1` was -0.5%; that for `O=C(c1cc(C2CCCNC2)ccn1)N(O)Cc1ccccc1` (centres unmarked) was 6.1%; that for `O=C(c1cc(N2CCC(F)CC2)ccn1)N(O)Cc1ccccc1` was 34%.
Take `O=C(c1cc(NS(=O)(=O)Cc2cccc(Cl)c2)ccn1)N(O)Cc1ccccc1`: the inhibition at 50 µM came out at 9.5%.
With `O=C(c1cc(NS(=O)(=O)Cc2cccc(C(F)(F)F)c2)ccn1)N(O)Cc1ccccc1`, the inhibition at 50 µM is 22.4%.
Same read-out and setting: under `O=C(NO)c1cc(NS(=O)(=O)Cc2cccc(C(F)(F)F)c2)ccn1` stands -5.6%; under `O=C(NO)c1cc(NS(=O)(=O)Cc2ccccc2Cl)ccn1`, 1.5%.
The same measure, in the same setting: the value for `O=C(NO)c1ccccn1` was 3.15%.
For the molecule `Nc1ccccc1NC(=O)c1ccc(C(=O)NO)nc1`, the inhibition at 50 µM was -5.53%.
Same read-out and setting: under `O=C(NO)c1cc(NS(=O)(=O)Cc2ccc(Cl)cc2)ccn1` stands -3.98%; under `O=C(NO)c1cc(NS(=O)(=O)Cc2ccc(Cl)c(Cl)c2)ccn1`, 53.4%; under `O=C(NO)c1cc(NS(=O)(=O)Cc2cccc3cccnc23)ccn1`, 24.4%.
Still for that read-out and setting: the value for `O=C(NOC(=O)c1cc(N2CCCCC2)ccn1)c1cc(N2CCCCC2)ccn1` [drawing 160] was 29%.
Same read-out and setting: under `Cc1cccc(C(=O)NOCc2ccccc2)n1` [drawing 170] stands -2.7%; under `CN(OCc1ccccc1)C(=O)c1cc2ccccc2cn1` [drawing 184], 0.6%; under `CN(O)C(=O)c1cc2ccccc2cn1` [drawing 199], -0.6%.
`O=C(c1cc2ccccc2cn1)N(O)Cc1ccccc1` [drawing 200]: the inhibition at 50 µM is 34.2%.
Consider `O=C(NO)c1cc2ccccc2cn1` [drawing 201], for which the inhibition at 50 µM turned out to be 94.3%.
Same read-out and setting: the value for `O=C(NO)c1ccc(N2CCCC2)cn1` [drawing 204] was -4.3%.
With `O=C(c1cc(NS(=O)(=O)Cc2ccccc2)ccn1)N(O)Cc1ccccc1` [drawing 209], the inhibition at 50 µM is 6.2%.
As for `O=C(NO)c1cc(N2CCOCC2)ccn1` [drawing 212], the inhibition at 50 µM was -7.1%.
Same read-out and setting: the value for `O=C(c1cc(NS(=O)(=O)c2ccccc2)ccn1)N(O)Cc1ccccc1` [drawing 213] was -5.2%; that for `C[C@@H]1CN(c2ccnc(C(=O)N(O)Cc3ccccc3)c2)C[C@H](C)O1` [drawing 218] was 10.5%.

The data set is the same for the next values; noted with them: Influenza A virus, H3N2, read-out: CPE H3N2 IC50 [μM].
Turning to `Cc1cc(-c2sc3nc(N)[nH]c(=O)c3c2C)ccc1Cl` [SAV-7620], the half-inhibitory concentration (IC50) is 29 µM.

Staying with this data set, now noted: Influenza A virus, H3N2, read-out: CPE H3N2 reduction (%), activity conc 5 (μM per method).
On to `Cc1c(-c2ccc(Cl)c(C(F)(F)F)c2)sc2nc(N)[nH]c(=O)c12` [SAV-7623], for which the inhibition at 5 µM was 1.9%.
Same read-out and setting: under `Cc1c(-c2ccccc2)sc2nc(Nc3ccccc3)[nH]c(=O)c12` [SAV-7638] stands 8.7%.

Staying with this data set, now noted: Influenza A virus, H3N2, read-out: CPE H3N2 reduction (%), activity conc 50 (μM per method).
For `CCONC(=O)c1cc(N2CCOCC2)ccn1`, the inhibition at 50 µM worked out at 1.3%.
Still for that read-out and setting: the value for `O=C(NO)c1cc(NS(=O)(=O)Cc2ccc(Cl)cc2Cl)ccn1` was 60.1%; that for `Cc1cc(-c2sc3nc(N)[nH]c(=O)c3c2C)ccc1Cl` [SAV-7620] was 57.8%.

The data set is the same for the next values; noted with them: Influenza A virus, H3N2; read-out: CPE H3N2 IC50.
Take `O=C(NO)c1cc(NS(=O)(=O)Cc2cccc3cccnc23)ccn1`: the IC50 was 78 µM.
In the case of `O=C(NOC(=O)c1cc(N2CCCCC2)ccn1)c1cc(N2CCCCC2)ccn1` [drawing 160], the IC50 was 37 µM.
`O=C(NO)c1cc2ccccc2cn1` [drawing 201]: the IC50 was found to be 45 µM.

Still in this data set, the particulars now being: activity conc 5 (μM per method).
Take `O=C(c1cc(N2CCCCC2)ccn1)N(O)Cc1ccccc1` [drawing 197]: the “CPE H3N2 reduction (%)” value stood at 1.1%.
